Where two headings read alike, the source gives them in different places. Starred links: 1 amine or outer side, 2 acyl side, 3 side chain; linkers in the order of their positions; H or OH if unused. Non-standard residues stand in square brackets, D forms with d. Residues, ends and D or L forms follow the SMILES beside them. Groups on a side chain read outwards from the residue. *: point of attachment. C20 diacid = O=C(O)CCCCCCCCCCCCCCCCCCC(=O)*; C18 diacid = O=C(O)CCCCCCCCCCCCCCCCC(=O)*; γGlu = O=C(O)[C@H](CCC(=O)[*:2])N[*:1]; X3 = O=C(CN(Cc1c[nH]cn1)[*:1])[*:2]; Palmitoyl = CCCCCCCCCCCCCCCC(=O)*; αMeF = C[C@](N)(Cc1ccccc1)C(=O)O; αMeS = C[C@](N)(CO)C(=O)O; PEG2 = NCCOCCOCCC(=O)O; AEEA = NCCOCCOCC(=O)O; Aib = CC(C)(N)C(=O)O Some results are limits rather than exact numbers.

The target of experiment [1] is human GLP-1 receptor (hGLP-1R) (Homo sapiens, UniProt P43220). The experiment in a line: cAMP production (HTRF) in CHO cells expressing hGLP-1R. The experiment is classed as cell-based. Also noted: expressed in transfected cells. To be noted: for % Relative Potency Ratio: % GLP-1R activity relative to GLP-1 / % GlucR activity relative to glucagon. The method in brief:
(§1)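 Cells were resuspended in assay buffer at batch-optimized density, typically 1×10^5 cells/mL for hGLP-1R and 2×10^5 cells/mL for hGCGR. After 30 min incubation at room temperature with compound, cAMP was measured by two-step HTRF. EC50 values came from 4-parameter logistic fits of % Delta F.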
Background: Changes in cAMP serve as a functional read-out for many G protein-coupled receptors.

For experiment [2], the target named is human glucagon receptor (hGCGR) (Homo sapiens, UniProt P47871). The experiment in a line: cAMP production (HTRF) in CHO cells expressing hGCGR. Set-up: expressed in transfected cells. To be noted: geometric mean. The class given is cell-based. The method in brief: as §1
Sequence of human glucagon receptor (hGCGR) (P47871 26-477): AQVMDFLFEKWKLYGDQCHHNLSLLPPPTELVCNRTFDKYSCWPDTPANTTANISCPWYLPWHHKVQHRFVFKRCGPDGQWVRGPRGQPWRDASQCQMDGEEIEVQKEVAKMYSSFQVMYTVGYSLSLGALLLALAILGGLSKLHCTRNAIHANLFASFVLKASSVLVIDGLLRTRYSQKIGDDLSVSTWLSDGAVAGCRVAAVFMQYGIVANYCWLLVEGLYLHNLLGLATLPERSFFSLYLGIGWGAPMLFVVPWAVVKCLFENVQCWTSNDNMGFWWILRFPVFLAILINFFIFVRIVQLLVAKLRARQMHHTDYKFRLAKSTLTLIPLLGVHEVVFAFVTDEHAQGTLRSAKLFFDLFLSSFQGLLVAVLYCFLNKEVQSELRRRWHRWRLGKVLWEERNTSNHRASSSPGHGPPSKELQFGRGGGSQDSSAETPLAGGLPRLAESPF
[3] abbreviates: Table 7, peptides modified at position 20, cAMP in CHO hGLP-1R cells, geometric mean, read-out: hGLP-1R EC50.
[4] abbreviates: Table 7, peptides modified at position 20, cAMP in CHO hGCGR cells, read-out: hGluc-R EC50.
[5] abbreviates: Table 6, peptides modified at position 17, cAMP in CHO hGCGR cells, read-out: hGluc-R EC50.

Sequence of human GLP-1 receptor (hGLP-1R) (P43220 24-463): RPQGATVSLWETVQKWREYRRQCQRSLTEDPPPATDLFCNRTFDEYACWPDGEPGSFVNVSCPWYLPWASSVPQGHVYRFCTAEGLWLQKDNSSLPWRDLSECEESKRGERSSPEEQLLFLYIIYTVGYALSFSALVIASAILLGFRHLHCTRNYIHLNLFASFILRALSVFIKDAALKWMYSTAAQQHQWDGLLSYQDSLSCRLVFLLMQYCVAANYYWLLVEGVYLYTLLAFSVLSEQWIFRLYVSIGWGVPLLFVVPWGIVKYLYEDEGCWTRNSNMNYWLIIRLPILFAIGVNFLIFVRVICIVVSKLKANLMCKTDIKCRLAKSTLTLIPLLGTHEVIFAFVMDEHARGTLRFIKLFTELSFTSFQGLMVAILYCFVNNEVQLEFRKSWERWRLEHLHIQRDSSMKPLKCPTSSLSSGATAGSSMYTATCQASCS

A word on the EC50: it is the concentration needed to bring the measured effect to its halfway point. `CC(C)C[C@H](NC(=O)[C@H](Cc1c[nH]c2ccccc12)NC(=O)[C@H](CCC(N)=O)NC(=O)[C@@H](NC(=O)[C@H](Cc1ccccc1)NC(=O)[C@H](CC(=O)O)NC(=O)[C@H](CCCNC(=N)N)NC(=O)[C@H](C)NC(=O)[C@H](CCCNC(=N)N)NC(=O)[C@H](CCCCNC(=O)COCCOCCNC(=O)COCCOCCNC(=O)CC[C@H](NC(=O)CCCCCCCCCCCCCCCCC(=O)O)C(=O)O)NC(=O)[C@@H](NC(=O)[C@H](CCC(=O)O)NC(=O)[C@H](CC(C)C)NC(=O)[C@](C)(Cc1ccccc1)NC(=O)[C@H](CCCCN)NC(=O)[C@H](CO)NC(=O)[C@@H](NC(=O)[C@H](CC(=O)O)NC(=O)[C@H](CO)NC(=O)[C@@H](NC(=O)[C@H](Cc1ccccc1)NC(=O)[C@@H](NC(=O)CNC(=O)[C@H](CCC(N)=O)NC(=O)C(C)(C)NC(=O)[C@@H](N)Cc1c[nH]cn1)[C@@H](C)O)[C@@H](C)O)C(C)C)[C@@H](C)O)C(C)C)C(=O)N[C@@H](CC(C)C)C(=O)N[C@@H](CCC(=O)O)C(=O)NC(C)(C)C(=O)NCC(=O)O` [Peptide 445] (H-H[Aib]QGTFTSDVSK[αMeF]LETK([AEEA-AEEA-γGlu-C18 diacid])RARDFVQWLLE[Aib]G-OH): the EC50 worked out at 33 pM in experiment [1] (hGLP-1R EC50 (pM), Table 6, peptides modified at position 17, cAMP in CHO hGLP-1R cells, geometric mean) and 684 pM in experiment [2] (hGluc-R EC50 (pM), Table 6, peptides modified at position 17, cAMP in CHO hGCGR cells).
On to `CC[C@H](C)[C@H](NC(=O)C(C)(C)NC(=O)[C@H](CCC(N)=O)NC(=O)[C@@H](NC(=O)[C@](C)(Cc1ccccc1)NC(=O)[C@H](CC(=O)O)NC(=O)[C@H](CCCCNC(=O)COCCOCCNC(=O)COCCOCCNC(=O)CC[C@H](NC(=O)CCCCCCCCCCCCCCCCC(=O)O)C(=O)O)NC(=O)[C@H](C)NC(=O)[C@H](C)NC(=O)[C@H](CCCNC(=N)N)NC(=O)[C@H](CO)NC(=O)[C@H](CC(=O)O)NC(=O)[C@H](CC(C)C)NC(=O)[C@](C)(Cc1ccccc1)NC(=O)[C@H](CCCCN)NC(=O)[C@H](CO)NC(=O)[C@@H](NC(=O)[C@H](CC(=O)O)NC(=O)[C@H](CO)NC(=O)[C@@H](NC(=O)[C@](C)(Cc1ccccc1)NC(=O)[C@H](CO)NC(=O)CNC(=O)[C@H](CCC(N)=O)NC(=O)[C@@H](CO)NC(=O)[C@@H](N)Cc1c[nH]cn1)[C@@H](C)O)C(C)C)C(C)C)C(=O)N[C@@H](C)C(=O)N[C@@H](CC(N)=O)C(=O)N[C@H](C(N)=O)[C@@H](C)O` [Peptide 330] (H-H[dS]QGS[αMeF]TSDVSK[αMeF]LDSRAAK([AEEA-AEEA-γGlu-C18 diacid])D[αMeF]VQ[Aib]IANT-NH2), for which the EC50 was 488 pM in experiment [1] (setting [3]) and greater than 25600 pM in experiment [2] (setting [4]).
Regarding `CC[C@H](C)[C@H](NC(=O)[C@H](CO)NC(=O)[C@H](CCC(N)=O)NC(=O)[C@@H](NC(=O)[C@H](Cc1ccccc1)NC(=O)[C@H](CC(=O)O)NC(=O)[C@H](CCCCNC(=O)COCCOCCNC(=O)COCCOCCNC(=O)CC[C@H](NC(=O)CCCCCCCCCCCCCCCCC(=O)O)C(=O)O)NC(=O)[C@H](C)NC(=O)[C@H](C)NC(=O)[C@H](CCC(N)=O)NC(=O)[C@H](CO)NC(=O)[C@H](CC(=O)O)NC(=O)[C@H](CC(C)C)NC(=O)[C@](C)(Cc1ccccc1)NC(=O)[C@H](CCCCN)NC(=O)[C@H](CO)NC(=O)[C@@H](NC(=O)[C@H](CC(=O)O)NC(=O)[C@H](CO)NC(=O)[C@@H](NC(=O)[C@](C)(Cc1ccccc1)NC(=O)[C@H](CO)NC(=O)CNC(=O)[C@H](Cc1c[nH]cn1)NC(=O)C(C)(C)NC(=O)[C@@H](N)Cc1c[nH]cn1)[C@@H](C)O)C(C)C)C(C)C)C(=O)N[C@@H](C)C(=O)N[C@@H](CC(N)=O)C(=O)N[C@H](C(N)=O)[C@@H](C)O` [Peptide 222] (H-H[Aib]HGS[αMeF]TSDVSK[αMeF]LDSQAAK([AEEA-AEEA-γGlu-C18 diacid])DFVQSIANT-NH2), the EC50 turned out to be 151 pM in experiment [1] (setting [3]) and 244 pM in experiment [2] (setting [4]). For the same molecule, the “% Relative Potency Ratio” value in experiment [1] (Table 7) is listed as 3.2.
`CCCCCCCCCCCCCCCC(=O)N[C@@H](CCC(=O)N[C@@H](CCC(=O)NCCOCCOCCC(=O)NCCOCCOCCC(=O)NCCCC[C@H](NC(=O)[C@H](CO)NC(=O)[C@H](CC(=O)O)NC(=O)[C@H](CC(C)C)NC(=O)[C@@H](NC(=O)[C@H](CCCCN)NC(=O)[C@H](CO)NC(=O)[C@@H](NC(=O)[C@H](CC(=O)O)NC(=O)[C@H](CO)NC(=O)[C@@H](NC(=O)[C@](C)(Cc1ccccc1)NC(=O)[C@H](CO)NC(=O)CNC(=O)[C@H](CCC(N)=O)NC(=O)[C@](C)(CO)NC(=O)[C@@H](N)Cc1c[nH]cn1)[C@@H](C)O)C(C)C)[C@@H](C)CC)C(=O)N[C@@H](C)C(=O)N[C@@H](C)C(=O)N[C@@H](CCC(N)=O)C(=O)N[C@@H](CC(=O)O)C(=O)N[C@@](C)(Cc1ccccc1)C(=O)N[C@H](C(=O)N[C@@H](CCC(N)=O)C(=O)NC(C)(C)C(=O)N[C@H](C(=O)N[C@H](C(=O)N[C@@H](CC(N)=O)C(=O)N[C@H](C(N)=O)[C@@H](C)O)[C@@H](C)CC)[C@@H](C)CC)C(C)C)C(=O)O)C(=O)O` [Peptide 131] (H-H[αMeS]QGS[αMeF]TSDVSKILDSK([PEG2-PEG2-γGlu-γGlu-Palmitoyl])AAQD[αMeF]VQ[Aib]IINT-NH2; N-terminus assumed): in experiment [1] (Table 6), the “% Relative Potency Ratio” value is 68.9. For the same molecule, the EC50 in experiment [2] (setting [5]) was determined as 17.8 pM.
As to `CC(C)C[C@H](NC(=O)[C@H](Cc1c[nH]c2ccccc12)NC(=O)[C@H](C)NC(=O)[C@@H](NC(=O)[C@H](Cc1ccccc1)NC(=O)[C@H](CC(=O)O)NC(=O)[C@H](CCCNC(=N)N)NC(=O)[C@H](C)NC(=O)[C@H](CCCNC(=N)N)NC(=O)[C@H](CCCCNC(=O)COCCOCCNC(=O)COCCOCCNC(=O)CC[C@H](NC(=O)CCCCCCCCCCCCCCCCC(=O)O)C(=O)O)NC(=O)[C@H](CO)NC(=O)[C@H](CC(=O)O)NC(=O)[C@H](CC(C)C)NC(=O)[C@](C)(Cc1ccccc1)NC(=O)[C@H](CCCCN)NC(=O)[C@H](CO)NC(=O)[C@@H](NC(=O)[C@H](CC(=O)O)NC(=O)[C@H](CO)NC(=O)[C@@H](NC(=O)[C@H](Cc1ccccc1)NC(=O)[C@@H](NC(=O)CNC(=O)[C@H](CCC(N)=O)NC(=O)C(C)(C)NC(=O)[C@@H](N)Cc1c[nH]cn1)[C@@H](C)O)[C@@H](C)O)C(C)C)C(C)C)C(=O)N[C@@H](CC(C)C)C(=O)N[C@@H](CCC(=O)O)C(=O)NC(C)(C)C(=O)NCC(=O)O` [Peptide 142] (H-H[Aib]QGTFTSDVSK[αMeF]LDSK([AEEA-AEEA-γGlu-C18 diacid])RARDFVAWLLE[Aib]G-OH; N-terminus assumed), the EC50 in experiment [1] (Table 6, peptides modified at position 17, cAMP in CHO hGLP-1R cells, geometric mean, read-out: hGLP-1R EC50) came to 59.4 pM; in experiment [2] (setting [5]), 108 pM. Further, the “% Relative Potency Ratio” value in experiment [1] (Table 6) came to 3.6.
With `CC[C@H](C)[C@H](NC(=O)[C@H](Cc1c[nH]c2ccccc12)NC(=O)[C@H](CCC(N)=O)NC(=O)[C@@H](NC(=O)[C@](C)(Cc1ccccc1)NC(=O)[C@H](CC(=O)O)NC(=O)[C@H](CCCCNC(=O)COCCOCCNC(=O)COCCOCCNC(=O)CC[C@H](NC(=O)CC[C@H](NC(=O)CCCCCCCCCCCCCCCCCCC(=O)O)C(=O)O)C(=O)O)NC(=O)[C@H](C)NC(=O)[C@H](C)NC(=O)[C@H](CCCNC(=N)N)NC(=O)[C@H](CO)NC(=O)[C@H](CC(=O)O)NC(=O)[C@H](CC(C)C)NC(=O)[C@](C)(Cc1ccccc1)NC(=O)[C@H](CCCCN)NC(=O)[C@H](CO)NC(=O)[C@@H](NC(=O)[C@H](CC(=O)O)NC(=O)[C@H](CO)NC(=O)[C@@H](NC(=O)[C@](C)(Cc1ccccc1)NC(=O)[C@H](CO)NC(=O)CNC(=O)[C@H](Cc1c[nH]cn1)NC(=O)[C@H](CO)NC(=O)CNCc1c[nH]cn1)[C@@H](C)O)C(C)C)C(C)C)C(=O)N[C@@H](C)C(=O)N[C@@H](CC(N)=O)C(=O)N[C@H](C(N)=O)[C@@H](C)O` [Peptide 248] (H-[X3]SHGS[αMeF]TSDVSK[αMeF]LDSRAAK([AEEA-AEEA-γGlu-γGlu-C20 diacid])D[αMeF]VQWIANT-NH2; N-terminus assumed), the EC50 came out at 1090 pM in experiment [1] (setting [3]) and 13600 pM in experiment [2] (setting [4]). In experiment [1] (Table 7), the “% Relative Potency Ratio” value is listed as 24.6.
In the case of `CC[C@H](C)[C@H](NC(=O)[C@H](Cc1c[nH]c2ccccc12)NC(=O)[C@H](CCCCNC(=O)CC[C@H](NC(=O)CCCCCCCCCCCCCCCCCCC(=O)O)C(=O)O)NC(=O)[C@@H](NC(=O)[C@H](Cc1ccccc1)NC(=O)[C@H](CC(=O)O)NC(=O)[C@H](CCC(N)=O)NC(=O)[C@H](C)NC(=O)[C@H](C)NC(=O)[C@H](CCC(N)=O)NC(=O)[C@H](CO)NC(=O)[C@H](CC(=O)O)NC(=O)[C@H](CC(C)C)NC(=O)[C@](C)(Cc1ccccc1)NC(=O)[C@H](CCCCN)NC(=O)[C@H](CO)NC(=O)[C@@H](NC(=O)[C@H](CC(=O)O)NC(=O)[C@H](CO)NC(=O)[C@@H](NC(=O)[C@H](Cc1ccccc1)NC(=O)[C@@H](NC(=O)CNC(=O)[C@H](Cc1c[nH]cn1)NC(=O)C(C)(C)NC(=O)[C@@H](N)Cc1c[nH]cn1)[C@@H](C)O)[C@@H](C)O)C(C)C)C(C)C)C(=O)N[C@@H](C)C(=O)N[C@@H](CC(N)=O)C(=O)N[C@H](C(N)=O)[C@@H](C)O` [Peptide 347], the “% Relative Potency Ratio” value in experiment [1] turned out to be 0.2. Besides, the EC50 in experiment [1] (hGLP-1R EC50 (pM)) was 4970 pM; in experiment [2] (hGluc-R EC50 (pM), cAMP, CHO cells, 0.1% BSA) it was 597 pM.

These data come from patent publication US20250353891A1 (MEDIMMUNE LIMITED, priority 2022, published 2025).
